Columns and labels:
[1] = tested on: HeLa; experiment: Survival of human HeLa cells at 0.01 uM under deem light after 96 hrs by MTT assay relative to control; format: functional; details: read-out: Survival
[2] = tested on: HeLa; experiment: Survival of human HeLa cells at 0.1 uM under deem light after 96 hrs by MTT assay relative to control; format: functional; details: read-out: Survival
[3] = tested on: HeLa; experiment: Survival of human HeLa cells at 10 uM under deem light after 96 hrs by MTT assay relative to control; format: functional; details: read-out: Survival
[4] = tested on: HeLa; experiment: Survival of human HeLa cells at 50 uM under deem light after 96 hrs by MTT assay relative to control; format: functional; details: read-out: Survival
[5] = tested on: HeLa; experiment: Survival of human HeLa cells at 100 uM under deem light after 96 hrs by MTT assay relative to control; format: functional; details: read-out: Survival
[6] = tested on: NCI-H69; experiment: Survival of human H69 cells at 0.01 uM under deem light after 96 hrs by MTT assay relative to control; format: functional; details: NCI-H69, 96 h, read-out: Survival
[7] = tested on: NCI-H69; experiment: Survival of human H69 cells at 0.1 uM under deem light after 96 hrs by MTT assay relative to control; format: functional; details: NCI-H69, 96 h, read-out: Survival
[8] = tested on: NCI-H69; experiment: Survival of human H69 cells at 10 uM under deem light after 96 hrs by MTT assay relative to control; format: functional; details: NCI-H69, 96 h, read-out: Survival
[9] = tested on: NCI-H69; experiment: Survival of human H69 cells at 50 uM under deem light after 96 hrs by MTT assay relative to control; format: functional; details: NCI-H69, 96 h, read-out: Survival
[10] = tested on: NCI-H69; experiment: Survival of human H69 cells at 100 uM under deem light after 96 hrs by MTT assay relative to control; format: functional; details: NCI-H69, 96 h, read-out: Survival
[11] = Survival of human H209 cells at 0.01 uM under deem light after 96 hrs by MTT assay relative to control; format: functional; details: NCI-H209, 96 h, read-out: Survival
[12] = Survival of human H209 cells at 0.1 uM under deem light after 96 hrs by MTT assay relative to control; format: functional; details: NCI-H209, 96 h, read-out: Survival
[13] = Survival of human H209 cells at 10 uM under deem light after 96 hrs by MTT assay relative to control; format: functional; details: NCI-H209, 96 h, read-out: Survival
[14] = Survival of human H209 cells at 50 uM under deem light after 96 hrs by MTT assay relative to control; format: functional; details: NCI-H209, 96 h, read-out: Survival
[15] = Survival of human H209 cells at 100 uM under deem light after 96 hrs by MTT assay relative to control; format: functional; details: NCI-H209, 96 h, read-out: Survival
[16] = Survival of human 2780.9S cells at 0.01 uM under deem light after 96 hrs by MTT assay relative to control; format: functional; details: read-out: Survival
[17] = Survival of human 2780.9S cells at 0.1 uM under deem light after 96 hrs by MTT assay relative to control; format: functional; details: read-out: Survival
[18] = Survival of human 2780.9S cells at 10 uM under deem light after 96 hrs by MTT assay relative to control; format: functional; details: read-out: Survival
[19] = Survival of human 2780.9S cells at 50 uM under deem light after 96 hrs by MTT assay relative to control; format: functional; details: read-out: Survival
[20] = Survival of human 2780.9S cells at 100 uM under deem light after 96 hrs by MTT assay relative to control; format: functional; details: read-out: Survival
[21] = Survival of human MDA-MB cells at 0.01 uM under deem light after 96 hrs by MTT assay relative to control; format: functional; details: read-out: Survival
[22] = Survival of human MDA-MB cells at 0.1 uM under deem light after 96 hrs by MTT assay relative to control; format: functional; details: read-out: Survival
[23] = Survival of human MDA-MB cells at 10 uM under deem light after 96 hrs by MTT assay relative to control; format: functional; details: read-out: Survival
[24] = Survival of human MDA-MB cells at 50 uM under deem light after 96 hrs by MTT assay relative to control; format: functional; details: read-out: Survival
[25] = Survival of human MDA-MB cells at 100 uM under deem light after 96 hrs by MTT assay relative to control; format: functional; details: read-out: Survival
[26] = tested on: SiHa; experiment: Cytotoxicity against human SIHA cells under deem light after 96 hrs by MTT assay; format: functional, cell-based
[27] = tested on: Raji; experiment: Cytotoxicity against human Raji cells under deem light after 96 hrs by MTT assay; format: functional, cell-based
[28] = Cytotoxicity against human MDA-MB cells under deem light after 96 hrs by MTT assay; format: functional, cell-based
[29] = tested on: K562; experiment: Cytotoxicity against human K562 cells under deem light after 96 hrs by MTT assay; format: functional, cell-based; details: K562, 96 h
[30] = tested on: HeLa; experiment: Cytotoxicity against human HeLa cells under deem light after 96 hrs by MTT assay; format: functional, cell-based
[31] = tested on: NCI-H69; experiment: Cytotoxicity against human H69 cells under deem light after 96 hrs by MTT assay; format: functional, cell-based; details: NCI-H69, 96 h
[32] = tested on: Daudi; experiment: Cytotoxicity against human Daudi cells under deem light after 96 hrs by MTT assay; format: functional, cell-based
[33] = Cytotoxicity against human 2780.9S cells under deem light after 96 hrs by MTT assay; format: functional, cell-based
[34] = Photohemolysis in human RBC in absence of light; format: ADME, cell-based; details: erythrocyte
[35] = tested on: SiHa; experiment: Survival of human SIHA cells at 0.1 uM under deem light after 96 hrs by MTT assay relative to control; format: functional; details: read-out: Survival
[36] = tested on: SiHa; experiment: Survival of human SIHA cells at 10 uM under deem light after 96 hrs by MTT assay relative to control; format: functional; details: read-out: Survival
[37] = tested on: SiHa; experiment: Survival of human SIHA cells at 50 uM under deem light after 96 hrs by MTT assay relative to control; format: functional; details: read-out: Survival
[38] = tested on: K562; experiment: Survival of human K562 cells at 0.01 uM under deem light after 96 hrs by MTT assay relative to control; format: functional; details: K562, 96 h, read-out: Survival
[39] = tested on: K562; experiment: Survival of human K562 cells at 0.1 uM under deem light after 96 hrs by MTT assay relative to control; format: functional; details: K562, 96 h, read-out: Survival
[40] = tested on: K562; experiment: Survival of human K562 cells at 10 uM under deem light after 96 hrs by MTT assay relative to control; format: functional; details: K562, 96 h, read-out: Survival
[41] = tested on: K562; experiment: Survival of human K562 cells at 50 uM under deem light after 96 hrs by MTT assay relative to control; format: functional; details: K562, 96 h, read-out: Survival
[42] = tested on: K562; experiment: Survival of human K562 cells at 100 uM under deem light after 96 hrs by MTT assay relative to control; format: functional; details: K562, 96 h, read-out: Survival
[43] = tested on: Raji; experiment: Survival of human Raji cells at 0.01 uM under deem light after 96 hrs by MTT assay relative to control; format: functional; details: read-out: Survival
[44] = tested on: Raji; experiment: Survival of human Raji cells at 0.1 uM under deem light after 96 hrs by MTT assay relative to control; format: functional; details: read-out: Survival
[45] = tested on: Raji; experiment: Survival of human Raji cells at 10 uM under deem light after 96 hrs by MTT assay relative to control; format: functional; details: read-out: Survival
[46] = tested on: Raji; experiment: Survival of human Raji cells at 50 uM under deem light after 96 hrs by MTT assay relative to control; format: functional; details: read-out: Survival
[47] = tested on: Raji; experiment: Survival of human Raji cells at 100 uM under deem light after 96 hrs by MTT assay relative to control; format: functional; details: read-out: Survival

## COc1cccc2c1C(=O)c1c(O)c3c(c(O)c1C2=O)C[C@@](O)(C(=O)CO)C[C@@H]3O[C@H]1C[C@H](N)[C@H](O)[C@H](C)O1 [DOXORUBICIN]
[1]
  viability at 0.01 µM: 97.5%
[2]
  viability at 0.1 µM: 81.4%
[3]
  viability at 10 µM: 20.2%
[4]
  viability at 50 µM: 7%
[5]
  viability at 100 µM: 6.1%
[6]
  viability at 0.01 µM: 86.5%
[7]
  viability at 0.1 µM: 82.2%
[8]
  viability at 10 µM: 37.7%
[9]
  viability at 50 µM: 16.8%
[10]
  viability at 100 µM: 6.6%
[11]
  viability at 0.01 µM: 85.6%
[12]
  viability at 0.1 µM: 85.6%
[13]
  viability at 10 µM: 23.1%
[14]
  viability at 50 µM: 5.8%
[15]
  viability at 100 µM: 1.5%
[16]
  viability at 0.01 µM: 108%
[17]
  viability at 0.1 µM: 105%
[18]
  viability at 10 µM: 56.9%
[19]
  viability at 50 µM: 13.8%
[20]
  viability at 100 µM: 7.4%
[21]
  viability at 0.01 µM: 121%
[22]
  viability at 0.1 µM: 96.8%
[23]
  viability at 10 µM: 50.5%
[24]
  viability at 50 µM: 11.8%
[25]
  viability at 100 µM: 5%
[26]
  IC50: 500 nM
[27]
  IC50: 2000 nM
[28]
  IC50: 9000 nM
[29]
  IC50: 1000 nM
[30]
  IC50: 2000 nM
[31]
  IC50: 3000 nM
[32]
  IC50: 300 nM
[33]
  IC50: 15000 nM
[34]
  Activity: Non-toxic
[35]
  viability at 0.1 µM: 72.2%
[36]
  viability at 10 µM: 4.4%
[37]
  viability at 50 µM: 3.5%
[38]
  viability at 0.01 µM: 116%
[39]
  viability at 0.1 µM: 100%
[40]
  viability at 10 µM: 22.1%
[41]
  viability at 50 µM: 9.5%
[42]
  viability at 100 µM: 7.5%
[43]
  viability at 0.01 µM: 110%
[44]
  viability at 0.1 µM: 106%
[45]
  viability at 10 µM: 8.6%
[46]
  viability at 50 µM: 2.5%
[47]
  viability at 100 µM: 1.1%
